Reference: PubChem BioAssay (NCI)
Where “and” joins values, the source holds several entries; their conditions need not be identical. Equal values may be shown once.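 Cells were grown in 96-well plates and exposed to each compound for 48 hours at five concentrations; endpoints were interpolated linearly between bracketing concentrations, or set to the highest concentration if not reached. GI50 is the concentration that inhibits growth by half. At the TGI there is no net growth.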

Experiments:
Assay in all cases: growth of human tumour cells (NCI), 48 h
DLD-1 colon = test system: DLD-1 colon
KM20L2 colon = test system: KM20L2 colon
M19-MEL melanoma = test system: M19-MEL melanoma
RXF-631 renal = test system: RXF-631 renal
SNB-78 CNS = test system: SNB-78 CNS
XF 498 CNS = test system: XF 498 CNS
DMS 114 small cell lung = test system: DMS 114 small cell lung
MDA-N = test system: MDA-N
T-47D breast = test system: T-47D breast

Compound	TGI (DLD-1 colon)	TGI (KM20L2 colon)	TGI (M19-MEL melanoma)	TGI (RXF-631 renal)	TGI (SNB-78 CNS)	TGI (XF 498 CNS)	TGI (DMS 114 small cell lung)	TGI (MDA-N)	TGI (T-47D breast)	GI50 (DLD-1 colon)	GI50 (DMS 114 small cell lung)	GI50 (KM20L2 colon)	GI50 (M19-MEL melanoma)	GI50 (SNB-78 CNS)	GI50 (XF 498 CNS)
C=CCC1[C@@H](C(C)(C)C(C(C)=O)C(=O)C(=O)OC)OC(C(C)(C)C)N1C(=O)OC (some centres not stated)	> 100 µM	> 100 µM	> 100 µM	> 100 µM	> 100 µM	> 100 µM	–	–	–	–	–	–	–	–	–
Cc1ccccc1Nc1nc2c(s1)C(=O)c1ccccc1C2=O	13.6 µM	> 65.4 µM	3.79 µM	–	> 64.8 µM	29.3 µM	4.69 µM	3.37 µM	27.5 µM	–	–	–	–	–	–
CSc1c(C)c(C)nn1-c1ccccc1	> 100 µM	> 100 µM	–	> 100 µM	> 100 µM	> 100 µM	> 100 µM	–	–	–	–	–	–	–	–
COc1c(Br)cc(Br)c(OC)c1-c1[nH]c(Br)c(Br)c1Br	18.4 µM	22.4 µM	23 µM	21.9 µM	28.8 µM	14.3 µM	19.4 µM	–	–	–	–	–	–	–	–
CC(=O)NNc1nc(C)c(C(=O)NNC(=O)C(=O)Nc2nc3ccc([N+](=O)[O-])cc3s2)s1	> 100 µM	> 100 µM	> 100 µM	> 100 µM	> 100 µM	75.9 µM	82.5 µM	> 100 µM	68.3 µM	–	–	–	–	–	–
Cl[Si]1(Cl)Oc2ccccc2O[Si](Cl)(Cl)Oc2ccccc2O1	> 100 µM	> 100 µM	25.3 µM	> 100 µM	–	30.3 µM	6.03 µM	–	–	–	–	–	–	–	–
O=C/C(=C(/Cl)c1ccc(O)cc1)c1ccccc1	> 60.1 µM	> 59.8 µM	42.1 µM	> 31.6 µM	> 82.9 µM	> 45.4 µM	31.2 µM	–	–	–	–	–	–	–	–
CCOC(=O)c1ccc(N[C@@H]2c3cc4c(cc3C(C3=CC(=O)C(=O)C(OC)=C3)[C@H]3C(=O)OCC32)OCO4)cc1 (some centres not stated)	> 39.8 µM	32.1 µM	36.4 µM	10 µM	> 54.6 µM	9.38 µM	6.89 µM	–	–	–	–	–	–	–	–
COC(=O)/C(C#N)=C1\CCC(C(=O)OC)N1C (configuration not stated)	> 100 µM	> 100 µM	> 100 µM	> 100 µM	> 100 µM	> 100 µM	> 100 µM	–	–	–	–	–	–	–	–
CC1(Cc2ccccc2)NC(=S)NC1=O (configuration not stated)	> 100 µM	> 100 µM	> 100 µM	> 100 µM	> 100 µM	–	> 100 µM	–	–	–	–	–	–	–	–
CC(C)c1ccccc1NC(=O)/C(Cl)=C1/Sc2ccccc2NC1=O	> 100 µM	59.7 µM	> 100 µM	> 100 µM	> 100 µM	–	53.4 µM	–	–	–	–	–	–	–	–
CC1=C(C(=O)Nc2ccccc2C)C(/C=C/c2ccccc2)C(C(=O)Nc2ccccc2C)=C(C)N1	> 100 µM	> 100 µM	> 100 µM	> 100 µM	> 100 µM	> 100 µM	–	–	–	–	–	–	–	–	–
C[n+]1c2ccccc2cc2c(CNC(CCCN=C(N)N)C(=O)O)cccc21 (configuration not stated)	1.32 µM and 1.74 µM	12.3 µM	2.26 µM and 17 µM	12.6 µM	7.93 µM and 35.5 µM	3.5 µM and 4.02 µM	1.16 µM and 3.36 µM	–	–	0.481 µM	1.62 µM	0.346 µM	4.23 µM	5.8 µM	2.46 µM
O=C1C2=C(c3ccccc31)C(c1ccccc1Cl)N1C(=O)CCSC1=N2 (configuration not stated)	> 100 µM	> 100 µM	> 100 µM	> 100 µM	–	> 100 µM	> 100 µM	–	–	–	–	–	–	–	–
Cc1ccc(S(=O)(=O)N/N=C(\c2nc3ccc([N+](=O)[O-])cc3[nH]c2=O)C(O)c2ccccc2Cl)cc1 (configuration not stated)	> 100 µM	> 100 µM	> 100 µM	> 100 µM	> 100 µM	–	> 100 µM	–	–	–	–	–	–	–	–
CC(CC(=O)Nc1ccc(NC(=O)CC(C)N=NC(N)=S)cc1)N=NC(N)=S (configuration not stated)	> 100 µM	> 100 µM	> 100 µM	> 100 µM	> 100 µM	> 100 µM	> 100 µM	–	–	–	–	–	–	–	–
CC1(C)CC[C@H](C2=CC(=O)c3c(O)ccc(O)c3C2=O)O1	–	–	–	3.98 µM	–	4.6 µM and 3.89 µM and 1.34 µM	2.21 µM and 3.14 µM and 0.47 µM	1.6 µM and 3.78 µM	1.35 µM and 2.63 µM	–	1.63 µM	–	–	–	2.3 µM and 2.36 µM and 0.563 µM
CCN(CC)CC(=O)N1CCc2c([nH]c3ccccc23)C1c1cccnc1 (configuration not stated)	> 100 µM	> 100 µM	> 100 µM	> 100 µM	> 100 µM	> 100 µM	> 100 µM	–	–	–	–	–	–	–	–
